These compounds were tested against Recombinant human KIF18A (1-467His-tagged) protein (Homo sapiens (Human), UniProt Q8NI77) (assay: KIF18A enzyme assay (microtubule-stimulated ATPase activity, ADP-Glo)). Conditions: 30 nM KIF18A, ATP 75 μM, read-out: inhibitory activity against KIF18A IC50.
Type: biochemical
Procedure, shortened: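 Baculovirus-expressed human KIF18A (1-467, His-tagged; 30 nM) preincubated 15 min at room temperature with compound (22-point 2-fold series) in pH 7.5 Tris buffer containing 30 μg/mL pig microtubules and 1 μM paclitaxel.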

Recombinant human KIF18A (1-467His-tagged) protein, sequence (Q8NI77 1-467): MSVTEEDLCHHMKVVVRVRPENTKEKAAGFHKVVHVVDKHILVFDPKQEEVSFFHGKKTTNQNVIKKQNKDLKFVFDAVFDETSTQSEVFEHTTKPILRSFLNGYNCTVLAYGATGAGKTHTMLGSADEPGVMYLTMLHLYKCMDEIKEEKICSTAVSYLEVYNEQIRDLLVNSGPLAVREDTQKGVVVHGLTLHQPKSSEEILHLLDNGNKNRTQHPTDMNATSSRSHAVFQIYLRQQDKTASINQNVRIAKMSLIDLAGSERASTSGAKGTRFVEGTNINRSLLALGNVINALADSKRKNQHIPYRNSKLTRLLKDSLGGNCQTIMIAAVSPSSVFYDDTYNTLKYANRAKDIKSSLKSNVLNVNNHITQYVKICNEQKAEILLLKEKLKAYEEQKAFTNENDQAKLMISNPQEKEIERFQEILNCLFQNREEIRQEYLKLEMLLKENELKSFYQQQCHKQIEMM
Recombinant human KIF18A (1-467His-tagged) protein, sequence (P02550 whole entry partner): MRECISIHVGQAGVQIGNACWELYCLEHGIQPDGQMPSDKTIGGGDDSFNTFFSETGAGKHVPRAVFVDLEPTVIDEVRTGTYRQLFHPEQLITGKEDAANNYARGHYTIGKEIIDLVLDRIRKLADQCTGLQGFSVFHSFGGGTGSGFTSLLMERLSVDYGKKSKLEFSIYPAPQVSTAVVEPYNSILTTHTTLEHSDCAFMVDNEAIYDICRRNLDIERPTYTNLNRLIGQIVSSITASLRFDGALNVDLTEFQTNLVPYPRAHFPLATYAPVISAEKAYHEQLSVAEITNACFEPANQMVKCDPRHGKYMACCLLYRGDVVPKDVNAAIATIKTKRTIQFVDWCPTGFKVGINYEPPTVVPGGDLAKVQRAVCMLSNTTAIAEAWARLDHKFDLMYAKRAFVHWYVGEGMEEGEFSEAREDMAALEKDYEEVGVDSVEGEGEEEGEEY
Recombinant human KIF18A (1-467His-tagged) protein, sequence (P02554 whole entry partner): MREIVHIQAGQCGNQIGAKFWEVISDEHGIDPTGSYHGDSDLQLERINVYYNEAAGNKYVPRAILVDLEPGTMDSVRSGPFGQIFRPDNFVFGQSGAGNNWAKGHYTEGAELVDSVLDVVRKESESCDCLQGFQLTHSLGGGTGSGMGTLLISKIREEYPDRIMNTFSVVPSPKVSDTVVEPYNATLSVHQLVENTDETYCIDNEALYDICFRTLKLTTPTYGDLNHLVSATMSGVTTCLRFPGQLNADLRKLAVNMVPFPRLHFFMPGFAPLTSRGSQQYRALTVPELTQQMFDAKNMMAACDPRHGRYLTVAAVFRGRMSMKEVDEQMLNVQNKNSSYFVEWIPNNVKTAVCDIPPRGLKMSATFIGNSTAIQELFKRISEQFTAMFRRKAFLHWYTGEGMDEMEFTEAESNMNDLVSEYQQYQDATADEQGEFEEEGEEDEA

| Compound | IC50 [nM] |
| --- | --- |
| Cn1ccc2cc(NC(=O)c3ccc(NS(=O)(=O)CCO)cc3N3CCC4(CC3)CC4)cc(N3CC4CC4C3)c21 (stereo not drawn) [Compound 394] | ≤ 100 |
| O=C(Nc1cc2ccoc2c(OCCC(F)(F)F)n1)c1ccc(NS(=O)(=O)CCO)cc1N1CCC2(CC1)CC2 [Compound 197] | ≤ 100 |
| CN1CCc2cc(C(=O)Nc3ccc(NS(=O)(=O)CCO)cc3N3CCC4(CC3)CC4)cc(N3CC(F)(F)C3)c21 [Compound 292] | ≤ 100 |
| C[C@@H]1CN(c2nc(NC(=O)c3ccc(NS(=O)(=O)CCO)cc3N3CCC4(CC3)CC4)cc3c2N(C)CC3)CCO1 [Compound 322] | ≤ 100 |
| O=C(Nc1ccc(NS(=O)(=O)CCO)cc1N1CCC2(CC1)CC2)c1cc2ccoc2c(N2CCOCC2)n1 [Compound 236] | ≤ 100 |
| CN1CCc2cc(C(=O)Nc3ccc(NS(=O)(=O)CCO)cc3N3CCC4(CC3)CC4)cc(OCCC(F)(F)F)c21 [Compound 293] | ≤ 100 |
| C[C@H](CO)NS(=O)(=O)c1ccc(C(=O)Nc2cc3c(c(N4CCO[C@H](C)C4)c2)N(C)CC3)c(N2CCC3(CC2)CC3)c1 [Compound 288] | ≤ 100 |
| O=C(Nc1ccc(S(=O)(=O)NCCO)cc1N1CCC2(CC1)CC2)c1cc2ccoc2c(N2CCC(F)(F)CC2)n1 [Compound 241] | ≤ 100 |
| CN1CCc2cc(NC(=O)c3ccc(NS(=O)(=O)CCO)cc3N3CCC4(CC3)CC4)nc(NC(C)(C)CO)c21 [Compound 331] | ≤ 100 |
| O=C(Nc1cc(N2CCC(F)(F)CC2)c2[nH]ccc2c1)c1ccc(NS(=O)(=O)CCO)cc1N1CCC2(CC1)CC2 [Compound 521] | ≤ 100 |
| Cn1ccc2cc(C(=O)Nc3ccc(NS(=O)(=O)CCO)cc3N3CCC4(CC3)CC4)nc(NC(C)(C)CO)c21 [Compound 491] | ≤ 100 |
| C[C@H](CO)NS(=O)(=O)c1ccc(C(=O)Nc2cc3c(c(N4CCC(F)(F)CC4)c2)OCC3)c(N2CCC3(CC2)CC3)c1 [Compound 30] | ≤ 100 |
| Cn1ccc2cc(NC(=O)c3ccc(S(=O)(=O)NCCO)cc3N3CCC4(CC3)CC4)nc(N3CC(F)(F)C3)c21 [Compound 468] | ≤ 100 |
| O=C(Nc1cc2c(c(N3CCC4(CC4)C3)n1)OCC2)c1ccc(S(=O)(=O)NCCO)cc1N1CCC2(CC1)CC2 [Compound 86] | ≤ 100 |
| O=C(Nc1ccc(NS(=O)(=O)CCO)cc1N1CCC2(CC1)CC2)c1cc2c(c(OCCC(F)(F)F)n1)OCC2 [Compound 101] | ≤ 100 |
| O=C(Nc1ccc(NS(=O)(=O)CCO)cc1N1CCC2(CC1)CC2)c1cc2ccoc2c(N2CCC(F)CC2)n1 [Compound 233] | ≤ 100 |
| CN1CCc2cc(NC(=O)c3ccc(S(=O)(=O)NCCO)cc3N3CCC4(CC3)CC4)nc(N3CC4CC4C3)c21 (stereo not drawn) [Compound 346] | ≤ 100 |
| O=C(Nc1ccc(S(=O)(=O)NCCO)cc1N1CCC2(CC1)CC2)c1cc2ccoc2c(N2CCC(F)CC2)n1 [Compound 249] | ≤ 100 |
| O=C(Nc1cc2c(c(N3CC4CC4C3)c1)OCC2)c1ccc(S(=O)(=O)NCCO)cc1N1CCC2(CC1)CC2 (stereo not drawn) [Compound 26] | ≤ 100 |

| Compound | IC50 [nM] |
| --- | --- |
| C[C@H]1CN(c2cc(NC(=O)c3ccc(NS(=O)(=O)CCO)cc3N3CCC4(CC3)CC4)cc3ccn(C)c23)CCO1 [Compound 387] | ≤ 100 |
| O=C(Nc1ccc(S(=O)(=O)NCCO)cc1N1CCC2(CC1)CC2)c1cc2c(c(N3CCC4(CC4)C3)c1)OCC2 [Compound 54] | ≤ 100 |
| O=C(Nc1cc(N2CCC(F)(F)CC2)c2ncsc2c1)c1ccc(NS(=O)(=O)CCO)cc1N1CCC2(CC1)CC2 [Compound 519] | ≤ 100 |
| C[C@H](CO)NS(=O)(=O)c1ccc(C(=O)Nc2cc3c(c(N4CCC(F)(F)CC4)c2)N(C)CC3)c(N2CCC3(CC2)CC3)c1 [Compound 286] | ≤ 100 |
| O=C(Nc1cc2ccoc2c(N2CCOCC2)n1)c1ccc(S(=O)(=O)NCCO)cc1N1CCC2(CC1)CC2 [Compound 220] | ≤ 100 |
| Cn1ccc2cc(C(=O)Nc3ccc(S(=O)(=O)NCCO)cc3N3CCC4(CC3)CC4)nc(N3CCOCC3)c21 [Compound 508] | ≤ 100 |
| C[C@H](CO)NS(=O)(=O)c1ccc(NC(=O)c2cc(N3CCO[C@H](C)C3)c3occc3c2)c(N2CCC3(CC2)CC3)c1 [Compound 192] | ≤ 100 |
| Cn1ccc2cc(C(=O)Nc3ccc(NS(=O)(=O)CCO)cc3N3CCC4(CC3)CC4)nc(OCCC(F)(F)F)c21 [Compound 485] | ≤ 100 |
| C[C@H](CO)NS(=O)(=O)c1ccc(NC(=O)c2cc3c(c(N4CCO[C@H](C)C4)c2)OCC3)c(N2CCC3(CC2)CC3)c1 [Compound 64] | ≤ 100 |
| O=C(Nc1cc2c(c(N3CCC(F)CC3)n1)OCC2)c1ccc(NS(=O)(=O)CCO)cc1N1CCC2(CC1)CC2 [Compound 73] | ≤ 100 |
| O=C(Nc1cc2ccoc2c(N2CCC(F)CC2)n1)c1ccc(NS(=O)(=O)CCO)cc1N1CCC2(CC1)CC2 [Compound 201] | ≤ 100 |
| C[C@H](CO)NS(=O)(=O)c1ccc(NC(=O)c2cc3ccn(C)c3c(N3CCO[C@H](C)C3)n2)c(N2CCC3(CC2)CC3)c1 [Compound 512] | ≤ 100 |
| C[C@@H]1CN(c2cc(C(=O)Nc3ccc(NS(=O)(=O)[C@@H](C)CO)cc3N3CCC4(CC3)CC4)cc3c2N(C)CC3)CCO1 [Compound 303] | ≤ 100 |
| C[C@H](CO)NS(=O)(=O)c1ccc(NC(=O)c2cc3c(c(N4CCC(F)(F)CC4)c2)N(C)CC3)c(N2CCC3(CC2)CC3)c1 [Compound 318] | ≤ 100 |
| C[C@H]1CN(c2cc(C(=O)Nc3ccc(S(=O)(=O)NCCO)cc3N3CCC4(CC3)CC4)cc3c2OCC3)CCO1 [Compound 51] | ≤ 100 |
| O=C(Nc1cc2c(c(N3CC4CC4C3)n1)OCC2)c1ccc(NS(=O)(=O)CCO)cc1N1CCC2(CC1)CC2 (stereo not drawn) [Compound 74] | ≤ 100 |
| CN1CCc2cc(C(=O)Nc3ccc(S(=O)(=O)NCCO)cc3N3CCC4(CC3)CC4)nc(OC3CCC3)c21 [Compound 375] | ≤ 100 |
| C[C@@H]1CN(c2nc(C(=O)Nc3ccc(NS(=O)(=O)[C@H](C)CO)cc3N3CCC4(CC3)CC4)cc3ccoc23)CCO1 [Compound 240] | ≤ 100 |
| Cn1ccc2cc(NC(=O)c3ccc(S(=O)(=O)NCCO)cc3N3CCC4(CC3)CC4)nc(N3CCC(C)(F)C3)c21 (stereo not drawn) [Compound 472] | ≤ 100 |

The remaining lines, values ahead:

| IC50 [nM] | Compound |
| --- | --- |
| ≤ 100 | C[C@@H](CO)NS(=O)(=O)c1ccc(C(=O)Nc2cc(N3CCC(F)(F)CC3)c3c(ccn3C)c2)c(N2CCC3(CC2)CC3)c1 [Compound 413] |
| ≤ 100 | O=C(Nc1ccc(S(=O)(=O)NCCO)cc1N1CCC2(CC1)CC2)c1cc(N2CC3CC3C2)c2occc2c1 (stereo not drawn) [Compound 186] |
| ≤ 100 | O=C(Nc1cc(N2CC(F)(F)C2)c2occc2c1)c1ccc(S(=O)(=O)NCCO)cc1N1CCC2(CC1)CC2 [Compound 148] |
| ≤ 100 | Cn1ccc2cc(C(=O)Nc3ccc(NS(=O)(=O)CCO)cc3N3CCC4(CC3)CC4)cc(OCCC(F)(F)F)c21 [Compound 421] |
| ≤ 100 | O=C(Nc1ccc(NS(=O)(=O)CCO)cc1N1CCC2(CC1)CC2)c1cc2c(c(N3CCC(F)CC3)c1)OCC2 [Compound 41] |
| ≤ 100 | C[C@@H](CO)NS(=O)(=O)c1ccc(C(=O)Nc2cc3ccn(C)c3c(N3CCC(F)(F)CC3)n2)c(N2CCC3(CC2)CC3)c1 [Compound 477] |
| ≤ 100 | C[C@H]1CN(c2cc(C(=O)Nc3ccc(NS(=O)(=O)CCO)cc3N3CCC4(CC3)CC4)cc3ccn(C)c23)CCO1 [Compound 419] |
| ≤ 100 | O=C(Nc1cc2c(c(OCCC(F)(F)F)c1)OCC2)c1ccc(S(=O)(=O)NCCO)cc1N1CCC2(CC1)CC2 [Compound 21] |
| ≤ 100 | CN1CCc2cc(NC(=O)c3ccc(NS(=O)(=O)CCO)cc3N3CCC4(CC3)CC4)cc(N3CCOCC3)c21 [Compound 268] |
| ≤ 100 | Cn1ccc2cc(C(=O)Nc3ccc(NS(=O)(=O)CCO)cc3N3CCC4(CC3)CC4)nc(N3CCC(F)CC3)c21 [Compound 489] |
| ≤ 100 | Cn1ccc2cc(NC(=O)c3ccc(NS(=O)(=O)CCO)cc3N3CCC4(CC3)CC4)nc(NC(C)(C)CO)c21 [Compound 459] |
| ≤ 100 | O=C(Nc1cc2ccoc2c(N2CCC(F)(F)CC2)n1)c1ccc(NS(=O)(=O)CCO)cc1N1CCC2(CC1)CC2 [Compound 193] |
| ≤ 100 | C[C@@H]1CN(c2cc(NC(=O)c3ccc(S(=O)(=O)NCCO)cc3N3CCC4(CC3)CC4)cc3ccn(C)c23)CCO1 [Compound 402] |
| ≤ 100 | CN1CCc2cc(C(=O)Nc3ccc(S(=O)(=O)NCCO)cc3N3CCC4(CC3)CC4)cc(N3CCC(F)(F)CC3)c21 [Compound 305] |
| ≤ 100 | C[C@H](CO)S(=O)(=O)Nc1ccc(NC(=O)c2cc(N3CCC(F)(F)CC3)c3c(ccn3C)c2)c(N2CCC3(CC2)CC3)c1 [Compound 430] |
| ≤ 100 | O=C(Nc1cc(N2CCC(F)(F)CC2)c2nccn2c1)c1ccc(NS(=O)(=O)CCO)cc1N1CCC2(CC1)CC2 [Compound 535] |
| ≤ 100 | O=C(Nc1cc2c(c(N3CCC(F)CC3)n1)OCC2)c1ccc(S(=O)(=O)NCCO)cc1N1CCC2(CC1)CC2 [Compound 89] |
| ≤ 100 | C[C@@H]1CN(c2nc(NC(=O)c3ccc(NS(=O)(=O)[C@@H](C)CO)cc3N3CCC4(CC3)CC4)cc3ccn(C)c23)CCO1 [Compound 463] |
| ≤ 100 | O=C(Nc1cc(N2CCC(F)(F)CC2)c2ncoc2c1)c1ccc(NS(=O)(=O)CCO)cc1N1CCC2(CC1)CC2 [Compound 517] |
| ≤ 100 | CN1CCc2cc(NC(=O)c3ccc(NS(=O)(=O)CCO)cc3N3CCC4(CC3)CC4)cc(N3CCC(C)(F)C3)c21 (stereo not drawn) [Compound 264] |
| ≤ 100 | CC1(F)CCN(c2nc(C(=O)Nc3ccc(NS(=O)(=O)CCO)cc3N3CCC4(CC3)CC4)cc3ccoc23)C1 (stereo not drawn) [Compound 232] |
| ≤ 100 | O=C(Nc1cc2c(c(N3CC(F)(F)C3)n1)OCC2)c1ccc(S(=O)(=O)NCCO)cc1N1CCC2(CC1)CC2 [Compound 84] |
| ≤ 100 | Cn1ccc2cc(C(=O)Nc3ccc(NS(=O)(=O)CCO)cc3N3CCC4(CC3)CC4)cc(N3CCC4(CC4)C3)c21 [Compound 422] |
| ≤ 100 | CC(C)(CO)Nc1nc(C(=O)Nc2ccc(S(=O)(=O)NCCO)cc2N2CCC3(CC2)CC3)cc2c1OCC2 [Compound 123] |
| ≤ 100 | Cn1ccc2cc(C(=O)Nc3ccc(NS(=O)(=O)CCO)cc3N3CCC4(CC3)CC4)nc(OC3CCC3)c21 [Compound 487] |
